Laboratory results published in ChEMBL document CHEMBL1143880, “Targeting gastrin-releasing peptide receptors of prostate cancer cells for photodynamic therapy with a phthalocyanine-bombesin conjugate” (Bioorg Med Chem Lett, 2008).

Biological target: Gastrin-releasing peptide receptor (Homo sapiens, UniProt P30550)
Experiment: Displacement of 125I[Tyr4]-bombesin from GRPR expressed in human PC3 cells
Assay type: cell-based, PC-3

Sequence of Gastrin-releasing peptide receptor (P30550 whole entry): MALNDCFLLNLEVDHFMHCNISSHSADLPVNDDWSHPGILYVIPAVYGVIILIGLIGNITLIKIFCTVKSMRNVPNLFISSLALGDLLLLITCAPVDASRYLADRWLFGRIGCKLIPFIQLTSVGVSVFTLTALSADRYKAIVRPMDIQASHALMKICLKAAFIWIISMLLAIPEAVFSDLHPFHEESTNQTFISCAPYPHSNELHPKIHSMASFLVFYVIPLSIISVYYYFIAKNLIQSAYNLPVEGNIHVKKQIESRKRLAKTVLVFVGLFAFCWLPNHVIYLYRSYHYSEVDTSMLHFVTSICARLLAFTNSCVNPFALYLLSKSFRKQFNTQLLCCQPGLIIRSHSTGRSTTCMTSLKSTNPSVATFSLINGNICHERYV

- EC50: 373 pM
Structure (SMILES): CSCC[C@H](NC(=O)[C@H](CC(C)C)NC(=O)[C@H](Cc1cnc[nH]1)NC(=O)CNC(=O)[C@@H](NC(=O)[C@H](C)NC(=O)[C@H](Cc1c[nH]c2ccccc12)NC(=O)[C@H](CCC(N)=O)NC(=O)CCCCCCCNC(=O)CCCCCN)C(C)C)C(N)=O
